In experiment [1] the target is T1, MLKL (Homo sapiens, UniProt Q8NB16).
T1 sequence (Q8NB16 1-471): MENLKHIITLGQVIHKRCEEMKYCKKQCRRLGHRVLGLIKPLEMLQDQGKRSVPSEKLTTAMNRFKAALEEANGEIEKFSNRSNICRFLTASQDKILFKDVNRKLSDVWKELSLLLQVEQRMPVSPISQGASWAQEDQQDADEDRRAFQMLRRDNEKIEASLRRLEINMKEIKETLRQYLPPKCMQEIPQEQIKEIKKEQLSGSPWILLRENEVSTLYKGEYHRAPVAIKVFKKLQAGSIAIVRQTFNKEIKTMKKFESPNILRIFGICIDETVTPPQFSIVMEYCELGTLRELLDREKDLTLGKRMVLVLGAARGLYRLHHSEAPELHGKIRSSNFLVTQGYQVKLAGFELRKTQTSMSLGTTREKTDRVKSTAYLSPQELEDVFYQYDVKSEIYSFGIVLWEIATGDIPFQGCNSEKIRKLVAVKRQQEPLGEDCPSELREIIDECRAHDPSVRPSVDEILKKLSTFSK
Description: Measurement of binding affinity with MLKL receptor (competitive binding assay, Kd). Also on record: made in house; host or cells: HEK 293 cell line (T7 phage in E. coli BL21-derived host is also described). Put shortly:
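HEK 293-expressed, DNA-tagged MLKL; ligand beads blocked with biotin and SeaBlock/1% BSA/0.05% Tween 20/1 mM DTT buffer. Cpd from 111× DMSO stock, 0.9% DMSO final. Eluted kinase by qPCR → Kd.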

For experiment [2], the target named is T1, MLKL. The experiment can be described thus: MLKL degradation assay in HepG2 cell line (western blot). It is filed as cell-based. Also on record: endogenous in cells; host or cells: HepG2 or HaCaT. The settings on record: cell line not given; for Degradation assay (Degradation %) 1 μM: compound 1 μM; for Degradation assay (Degradation %) 10 μM: compound 10 μM. The method, boiled down:
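HepG2, cpd final 1 or 10 μM, 20-24 h, 37 °C/5% CO2; RIPA lysis, BCA-normalized, 10-15 μg/lane SDS-PAGE, western blot, ECL read-out.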
For orientation: In western blotting, separated proteins are transferred to a membrane and probed.

For a further experiment, the system named is FADD−/− Jurkat cells. Description: Necroptosis inhibition assay, TNF-α-induced necroptosis (CellTiter-Glo 2.0). It is filed as cell-based, human. The note with it: TNF-α 15 ng/mL; for Necroptosis inhibition assay (Rescue %) 1 μM: compound 1 μM; for Necroptosis inhibition assay (Rescue %) 10 μM: compound 10 μM. Put shortly:
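Cmpd 0.1/1/10 μM final, 30 min RT preincubation; TNF-α 15 ng/mL final; 20–24 h, 37° C, 5% CO2. Readout: ATP luminescence (reagent 1:3 in PBS), 0.5 s/well. Cytotoxicity and % necroptosis inhibition calculated from signal.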
For orientation: ATP-based viability assays read luminescence as a measure of living cells.

The record followed here is patent US20240252488A1 (KOREA RESEARCH INSTITUTE OF CHEMICAL TECHNOLOGY, priority 2020, published 2024).

What is called Kd is the equilibrium constant for the complex coming apart. The low end stands for a tighter complex, the high end for a looser complex. On MLKL [1], `Nc1ncc(-c2cnn(C3CCN(CC4CCN(C(=O)C5CCN(c6ccc7c(c6)C(=O)N(C6CCC(=O)NC6=O)C7=O)CC5)CC4)CC3)c2)nc1C(=O)O[C@@H](C(=O)Nc1ccc(F)cc1)c1ccccc1` (stereo partly drawn) [TDH-147, (R)-2-((4-fluorophenyl)amino)-2-oxo-1-phenylethyl 3-amino-6-(1-(1-((1-(1-(2-(2,6-dioxopiperidin-3-yl)-1,3-dioxoisoindolin-5-yl)piperidine-4-carbonyl)piperidin-4-yl)methyl)piperidin-4-yl)-1H-pyrazol-4-yl)pyrazine-2-carboxylate] displayed a Kd of 24 nM. At MLKL [2], the “Degradation assay (Degradation %) 1 μM” value is given as 38.91% and the “Degradation assay (Degradation %) 10 μM” value came to 60.57%. For the same compound, in the experiment on FADD−/− Jurkat cells, the “Necroptosis inhibition assay (Rescue %) 1 μM” value was found to be 84.3% and the “Necroptosis inhibition assay (Rescue %) 10 μM” value is recorded as 45.37%.

As for `COc1ccc(C(=O)N2CCC3(CC2)CC(N2CCC(CN4CCC(n5cc(-c6cnc(N)c(C(=O)O[C@@H](C(=O)Nc7ccc(F)cc7)c7ccccc7)n6)cn5)CC4)CC2)C3)cc1N1CCC(=O)NC1=O` [TDH-503, (R)-2-((4-fluorophenyl)amino)-2-oxo-1-phenylethyl 3-amino-6-(1-(1-((1-(7-(3-(2,4-dioxotetrahydropyrimidin-1(2H)-yl)-4-methoxybenzoyl)-7-azaspiro[3.5]nonan-2-yl)piperidin-4-yl)methyl)piperidin-4-yl)-1H-pyrazol-4-yl)pyrazine-2-carboxylate], the Kd at MLKL [1] came to 0.44 nM. The “Degradation assay (Degradation %) 1 μM” value at MLKL [2] was 93.09%. In the experiment on FADD−/− Jurkat cells (FADD−/− Jurkat cells), the “Necroptosis inhibition assay (Rescue %) 1 μM” value is given as 94.80% and the “Necroptosis inhibition assay (Rescue %) 10 μM” value was 14.61%.

The compound `COc1ccc(C(=O)N2CCC(C(=O)N3CCC(CCN4CCC(n5cc(-c6cnc(N)c(C(=O)O[C@@H](C(=O)Nc7ccc(F)cc7)c7ccccc7)n6)cn5)CC4)CC3)CC2)cc1N1CCC(=O)NC1=O` [TDH-517, (R)-2-((4-fluorophenyl)amino)-2-oxo-1-phenylethyl 3-amino-6-(1-(1-(2-(1-(1-(3-(2,4-dioxotetrahydropyrimidin-1(2H)-yl)-4-methoxybenzoyl)piperidine-4-carbonyl)piperidin-4-yl)ethyl)piperidin-4-yl)-1H-pyrazol-4-yl)pyrazine-2-carboxylate] registered a Kd at MLKL [1] of 0.62 nM. Moreover, on MLKL [2], the “Degradation assay (Degradation %) 1 μM” value worked out at 93.97% and the “Degradation assay (Degradation %) 10 μM” value worked out at 86.64%. In the experiment on FADD−/− Jurkat cells (FADD−/− Jurkat cells), the “Necroptosis inhibition assay (Rescue %) 1 μM” value is reported as 58.11% and the “Necroptosis inhibition assay (Rescue %) 10 μM” value came to 10.78%.

The compound `COc1ccc(C(=O)N2CCN(CCCN3CCC(n4cc(-c5cnc(N)c(C(=O)O[C@@H](C(=O)Nc6ccc(F)cc6)c6ccccc6)n5)cn4)CC3)CC2)cc1N1CCC(=O)NC1=O` [TDH-447, (R)-2-((4-fluorophenyl)amino)-2-oxo-1-phenylethyl 3-amino-6-(1-(1-(3-(4-(3-(2,4-dioxotetrahydropyrimidin-1(2H)-yl)-4-methoxybenzoyl)piperazin-1-yl)propyl)piperidin-4-yl)-1H-pyrazol-4-yl)pyrazine-2-carboxylate] showed a Kd on MLKL [1] of 0.17 nM. Further, at MLKL [2], the “Degradation assay (Degradation %) 1 μM” value was 60.39% and the “Degradation assay (Degradation %) 10 μM” value amounted to 14.41%. In the experiment with FADD−/− Jurkat cells (FADD−/− Jurkat cells), the “Necroptosis inhibition assay (Rescue %) 1 μM” value is 33.69% and the “Necroptosis inhibition assay (Rescue %) 10 μM” value was found to be 14.38%.

`Nc1ncc(-c2cnn(C3CCN(CCC4CCN(C(=O)CNc5ccc6c(c5)C(=O)N(C5CCC(=O)NC5=O)C6=O)CC4)CC3)c2)nc1C(=O)O[C@@H](C(=O)Nc1ccc(F)cc1)c1ccccc1` (stereo partly drawn) [TDH-199, (R)-2-((4-fluorophenyl)amino)-2-oxo-1-phenylethyl 3-amino-6-(1-(1-(2-(1-((2-(2,6-dioxopiperidin-3-yl)-1,3-dioxoisoindolin-5-yl)glycyl)piperidin-4-yl)ethyl)piperidin-4-yl)-1H-pyrazol-4-yl)pyrazine-2-carboxylate] showed a dissociation constant (Kd) on MLKL [1] of 1.7 nM. Also, on MLKL [2], the “Degradation assay (Degradation %) 1 μM” value stood at 61.77% and the “Degradation assay (Degradation %) 10 μM” value was determined as 38.35%. Further, in the experiment on FADD−/− Jurkat cells, the “Necroptosis inhibition assay (Rescue %) 1 μM” value is 36.93% and the “Necroptosis inhibition assay (Rescue %) 10 μM” value is 18%.

`Nc1ncc(-c2cnn(C3CCN(CCC4CCN(C(=O)COc5cccc6c5C(=O)N(C5CCC(=O)NC5=O)C6=O)CC4)CC3)c2)nc1C(=O)O[C@@H](C(=O)Nc1ccc(F)cc1)c1ccccc1` (stereo partly drawn) [TDH-200, (R)-2-((4-fluorophenyl)amino)-2-oxo-1-phenylethyl 3-amino-6-(1-(1-(2-(1-(2-((2-(2,6-dioxopiperidin-3-yl)-1,3-dioxoisoindolin-4-yl)oxy)acetyl)piperidin-4-yl)ethyl)piperidin-4-yl)-1H-pyrazol-4-yl)pyrazine-2-carboxylate]: binding on MLKL [1] was put at a Kd of 1 nM. At MLKL [2], the “Degradation assay (Degradation %) 1 μM” value was found to be 74.03% and the “Degradation assay (Degradation %) 10 μM” value is recorded as 60.19%. Also, in the experiment with FADD−/− Jurkat cells, the “Necroptosis inhibition assay (Rescue %) 1 μM” value is 76.41% and the “Necroptosis inhibition assay (Rescue %) 10 μM” value was found to be 44.64%.

In turn, `Nc1ncc(-c2cnn(C3CCN(CCCN4CC5CN(C(=O)CNc6ccc7c(c6)C(=O)N(C6CCC(=O)NC6=O)C7=O)CC5C4)CC3)c2)nc1C(=O)O[C@@H](C(=O)Nc1ccc(F)cc1)c1ccccc1` (stereo partly drawn) [TDH-467, (R)-2-((4-fluorophenyl)amino)-2-oxo-1-phenylethyl 3-amino-6-(1-(1-(3-(5-((2-(2,6-dioxopiperidin-3-yl)-1,3-dioxoisoindolin-5-yl)glycyl)hexahydropyrrolo[3,4-c]pyrrol-2(1H)-yl)propyl)piperidin-4-yl)-1H-pyrazol-4-yl)pyrazine-2-carboxylate] returned a Kd on MLKL [1] of 0.5 nM. Also, at MLKL [2], the “Degradation assay (Degradation %) 1 μM” value amounted to 93.95% and the “Degradation assay (Degradation %) 10 μM” value was 86.45%. Moreover, in the experiment on FADD−/− Jurkat cells (FADD−/− Jurkat cells), the “Necroptosis inhibition assay (Rescue %) 1 μM” value is 54.19% and the “Necroptosis inhibition assay (Rescue %) 10 μM” value is reported as −9.09%.

At MLKL [1], `Nc1ncc(-c2cnn(C3CCN(C[C@H]4CC[C@H](CNC(=O)COc5cccc6c5C(=O)N(C5CCC(=O)NC5=O)C6=O)CC4)CC3)c2)nc1C(=O)O[C@@H](C(=O)Nc1ccc(F)cc1)c1ccccc1` (stereo partly drawn) [TDH-345, (R)-2-((4-fluorophenyl)amino)-2-oxo-1-phenylethyl 3-amino-6-(1-(1-(((1r,4r)-4-((2-((2-(2,6-dioxopiperidin-3-yl)-1,3-dioxoisoindolin-4-yl)oxy)acetamido)methyl)cyclohexyl)methyl)piperidin-4-yl)-1H-pyrazol-4-yl)pyrazine-2-carboxylate] had a Kd of 1.5 nM. In addition, on MLKL [2], the “Degradation assay (Degradation %) 1 μM” value is reported as 87.91% and the “Degradation assay (Degradation %) 10 μM” value was found to be 80.66%. For the same compound, in the experiment on FADD−/− Jurkat cells, the “Necroptosis inhibition assay (Rescue %) 1 μM” value came out at 29.41% and the “Necroptosis inhibition assay (Rescue %) 10 μM” value is recorded as 19.45%.

Regarding `Nc1ncc(-c2cnn(C3CCN(CCOC4CCN(C(=O)COc5ccc6nnn(C7CCC(=O)NC7=O)c(=O)c6c5)CC4)CC3)c2)nc1C(=O)O[C@@H](C(=O)Nc1ccc(F)cc1)c1ccccc1` (stereo partly drawn) [TDH-373, (R)-2-((4-fluorophenyl)amino)-2-oxo-1-phenylethyl 3-amino-6-(1-(1-(2-((1-(2-((3-(2,6-dioxopiperidin-3-yl)-4-oxo-3,4-dihydrobenzo[d][1,2,3]triazin-6-yl)oxy)acetyl)piperidin-4-yl)oxy)ethyl)piperidin-4-yl)-1H-pyrazol-4-yl)pyrazine-2-carboxylate], at MLKL [1], the equilibrium dissociation constant (Kd) turned out to be 1.4 nM. At MLKL [2], the “Degradation assay (Degradation %) 1 μM” value is 87.78% and the “Degradation assay (Degradation %) 10 μM” value was 86.6%. In the experiment with FADD−/− Jurkat cells, the “Necroptosis inhibition assay (Rescue %) 1 μM” value came to 62.68% and the “Necroptosis inhibition assay (Rescue %) 10 μM” value stood at 40.09%.

The compound `Nc1ncc(-c2cnn([C@@H]3CCN(CCOCCOCCNC(=O)CNc4cccc5c4C(=O)N(C4CCC(=O)NC4=O)C5=O)C3)c2)nc1C(=O)OC(C(=O)Nc1ccc(F)cc1)c1ccccc1` (stereo partly drawn) [TDH-267, 2-((4-fluorophenyl)amino)-2-oxo-1-phenylethyl 3-amino-6-(1-((3R)-1-(2-(2-(2-(2-((2-(2,6-dioxopiperidin-3-yl)-1,3-dioxoisoindolin-4-yl)amino)acetamido)ethoxy)ethoxy)ethyl)pyrrolidin-3-yl)-1H-pyrazol-4-yl)pyrazine-2-carboxylate] came in with a Kd at MLKL [1] of 5.7 nM. Besides, the “Degradation assay (Degradation %) 10 μM” value at MLKL [2] turned out to be 37.75%. Besides, in the experiment on FADD−/− Jurkat cells, the “Necroptosis inhibition assay (Rescue %) 1 μM” value was 21.58% and the “Necroptosis inhibition assay (Rescue %) 10 μM” value is given as 60.07%.
